# Where two headings read alike, the source gives them in different places. No end group written: not given here.
# Experiments:
# [1] = system: EphB1; test: EphB receptor specificity (% binding), Table 1; conditions: binding to EphB1
# [2] = biological target: EphB2 (Homo sapiens, UniProt P29323); test: EphB receptor specificity (% binding), Table 1; conditions: binding to EphB2
# [3] = biological target: T1, EphB1 (Homo sapiens, UniProt P54762); test: Inhibition of ephrin-B2 AP binding by peptides panned on EphB1 (Table 1)
# T1 sequence (P54762 18-540 limits assumed): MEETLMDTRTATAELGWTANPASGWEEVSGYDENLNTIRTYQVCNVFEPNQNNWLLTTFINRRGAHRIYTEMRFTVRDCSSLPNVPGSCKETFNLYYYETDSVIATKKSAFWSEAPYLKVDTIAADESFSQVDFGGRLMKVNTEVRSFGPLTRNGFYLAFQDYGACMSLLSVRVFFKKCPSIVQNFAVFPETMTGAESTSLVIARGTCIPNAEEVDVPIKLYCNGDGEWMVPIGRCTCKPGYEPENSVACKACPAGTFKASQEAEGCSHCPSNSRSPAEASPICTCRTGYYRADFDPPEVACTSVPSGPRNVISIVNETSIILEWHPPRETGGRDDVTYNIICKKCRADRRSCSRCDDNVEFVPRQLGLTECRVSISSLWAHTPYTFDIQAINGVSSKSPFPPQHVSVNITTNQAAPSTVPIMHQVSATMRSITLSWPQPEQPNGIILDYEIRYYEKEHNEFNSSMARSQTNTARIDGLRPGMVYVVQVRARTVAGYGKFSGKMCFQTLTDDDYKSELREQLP
# [4] = biological target: T2, murine EphB4 (Mus musculus, UniProt P54761); test: Binding ELISA on immobilized murine EphB4-Fc, streptavidin-HRP detection (Table 3); conditions: binding to murine EphB4; based on the estimated concentration of peptide-coupled PEG molecules; read-out: KD ± SE
# T2 construct: purchased R&D Systems 446-B4-200
# T2 sequence (P54761 16-539 limits assumed): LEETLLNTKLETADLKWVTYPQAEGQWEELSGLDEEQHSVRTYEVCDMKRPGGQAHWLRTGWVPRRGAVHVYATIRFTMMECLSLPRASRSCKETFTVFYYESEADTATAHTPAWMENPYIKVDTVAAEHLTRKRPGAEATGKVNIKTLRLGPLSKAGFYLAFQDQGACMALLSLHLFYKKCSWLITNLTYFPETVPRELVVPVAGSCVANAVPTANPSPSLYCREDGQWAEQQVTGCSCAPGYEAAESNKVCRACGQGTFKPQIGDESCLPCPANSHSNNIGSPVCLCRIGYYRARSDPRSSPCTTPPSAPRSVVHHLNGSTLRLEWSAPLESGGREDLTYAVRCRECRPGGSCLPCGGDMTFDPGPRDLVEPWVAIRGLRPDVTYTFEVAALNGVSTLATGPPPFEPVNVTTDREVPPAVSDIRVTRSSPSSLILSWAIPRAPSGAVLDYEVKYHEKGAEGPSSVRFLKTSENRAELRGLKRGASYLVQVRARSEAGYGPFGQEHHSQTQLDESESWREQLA
# Procedure: The dissociation constants in Table 3 were measured in binding assays as described below. Reacti-bind Protein A coated strip plates were washed three times with the wash buffer TBST/Ca (TBS, 0.01% Tween, 1 mM CaCl2). Plates were coated with murine EphB4-Fc (reconstituted in PBS 200 μg/ml, diluted to 1 μg/ml in TBST/Ca) 100 μl/well for 1 hour at ambient temperature. The plates were washed four times with TBST/Ca. PEG-TNYL-RAW-biotin (made by The Burnham Institute, La Jolla, Calif.), obtained from the PEGylation reaction described in Example 2 supra, was added at different concentrations in TBST/Ca (100 μl/well) for 1 hour at ambient temperature. The plates were again washed four times with TBST/Ca. Streptavidin-HRP (1:2000) in 100 μl TBST/Ca was added for 1 hour at ambient temperature. The plates were again washed four times with TBST/Ca.
# [5] = biological target: T3, murine EphB4/murine ephrin-B2 (Mus musculus, UniProt P54761); test: Inhibition of murine EphB4-AP binding to immobilized murine ephrin-B2-Fc (Table 4); conditions: based on the estimated concentration of peptide-coupled PEG molecules, No PEG control not biotinylated
# T3 sequence (P54761 16-539 limits assumed): T2 sequence (P54761 16-539 limits assumed)
# Procedure: The IC50 values in Table 4 were obtained from inhibition assays. […] Reati-bind Protein A coated strip plates were washed three times with wash buffer TBST/Ca. Plates were coated with murine ephrin-B2-Fc (reconstituted in PBS 200 μg/ml, diluted to 1 μg/ml with TBST/Ca) 100 μl/well for 1 h at ambient temperature. The control used was Human-Fc (1 μg/ml; 100 μl/well); Human-Fc is the control for ephrin-B2-Fc, which contains the extracellular domain of ephrin-B2 fused to the Fc portion of human IgG1. The plates were washed four times with TBST/Ca. For each well was added: PEG-TNYL-RAW-biotin, from PEGylation reaction in Example 2, supra, at different concentrations; 10 μl murine EphB4-Alkaline Phosphatase (EphB4-AP); and TBST/Ca to 50 μl. Plates were incubates for 3 hours at ambient temperature, then washed four times with TBST/Ca. Substrate, 1 mg/ml PNPP in SEAP buffer, was added in the amount of 100 μl/well. (2×SEAP buffer (pH=9.8) was prepared by: adding 2.1 ml diethanolamine and 10 μl 1M MgCl2 to 10 ml (total) water; adjusting pH to 9.8; wrapping in foil and storing at ambient temperature; and diluting with water to 1× on day of use). Optical density analysis (OD405) was performed using a plate reader to determine the extent to which PEG-TNYL-RAW-biotin inhibits the EphB4-ephrin-B2 interaction. […]
# [6] = biological target: T4, EphB4 (Mus musculus, UniProt P54761); test: EphB receptor specificity (% binding), Table 1; conditions: binding to EphB4
# T4 sequence (P54761 16-987): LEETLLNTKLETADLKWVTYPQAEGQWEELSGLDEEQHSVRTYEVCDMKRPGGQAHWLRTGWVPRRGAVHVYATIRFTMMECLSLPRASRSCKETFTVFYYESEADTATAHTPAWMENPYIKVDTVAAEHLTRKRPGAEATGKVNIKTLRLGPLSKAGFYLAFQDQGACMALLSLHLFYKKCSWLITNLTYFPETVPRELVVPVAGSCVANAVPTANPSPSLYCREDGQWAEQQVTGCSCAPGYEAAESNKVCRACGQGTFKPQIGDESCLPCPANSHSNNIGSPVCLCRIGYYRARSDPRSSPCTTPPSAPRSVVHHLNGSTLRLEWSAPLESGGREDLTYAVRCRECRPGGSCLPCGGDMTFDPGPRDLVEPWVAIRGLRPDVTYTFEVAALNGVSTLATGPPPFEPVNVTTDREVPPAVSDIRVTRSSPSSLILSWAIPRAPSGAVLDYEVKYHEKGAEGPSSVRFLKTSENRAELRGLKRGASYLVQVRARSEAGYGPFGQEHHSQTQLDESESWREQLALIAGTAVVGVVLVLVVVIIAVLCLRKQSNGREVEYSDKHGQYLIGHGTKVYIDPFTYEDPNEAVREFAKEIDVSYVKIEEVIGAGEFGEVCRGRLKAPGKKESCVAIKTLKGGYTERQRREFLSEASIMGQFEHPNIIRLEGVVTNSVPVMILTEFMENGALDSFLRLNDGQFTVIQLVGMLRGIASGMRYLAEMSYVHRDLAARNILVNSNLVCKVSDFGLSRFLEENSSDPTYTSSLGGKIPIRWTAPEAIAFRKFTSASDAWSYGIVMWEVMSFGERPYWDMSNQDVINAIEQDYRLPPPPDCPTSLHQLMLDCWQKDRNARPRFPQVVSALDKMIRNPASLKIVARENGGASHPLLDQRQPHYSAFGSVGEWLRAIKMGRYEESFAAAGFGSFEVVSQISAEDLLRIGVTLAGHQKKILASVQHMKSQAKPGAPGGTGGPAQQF
# Sequence of EphB2 (P29323 19-1055): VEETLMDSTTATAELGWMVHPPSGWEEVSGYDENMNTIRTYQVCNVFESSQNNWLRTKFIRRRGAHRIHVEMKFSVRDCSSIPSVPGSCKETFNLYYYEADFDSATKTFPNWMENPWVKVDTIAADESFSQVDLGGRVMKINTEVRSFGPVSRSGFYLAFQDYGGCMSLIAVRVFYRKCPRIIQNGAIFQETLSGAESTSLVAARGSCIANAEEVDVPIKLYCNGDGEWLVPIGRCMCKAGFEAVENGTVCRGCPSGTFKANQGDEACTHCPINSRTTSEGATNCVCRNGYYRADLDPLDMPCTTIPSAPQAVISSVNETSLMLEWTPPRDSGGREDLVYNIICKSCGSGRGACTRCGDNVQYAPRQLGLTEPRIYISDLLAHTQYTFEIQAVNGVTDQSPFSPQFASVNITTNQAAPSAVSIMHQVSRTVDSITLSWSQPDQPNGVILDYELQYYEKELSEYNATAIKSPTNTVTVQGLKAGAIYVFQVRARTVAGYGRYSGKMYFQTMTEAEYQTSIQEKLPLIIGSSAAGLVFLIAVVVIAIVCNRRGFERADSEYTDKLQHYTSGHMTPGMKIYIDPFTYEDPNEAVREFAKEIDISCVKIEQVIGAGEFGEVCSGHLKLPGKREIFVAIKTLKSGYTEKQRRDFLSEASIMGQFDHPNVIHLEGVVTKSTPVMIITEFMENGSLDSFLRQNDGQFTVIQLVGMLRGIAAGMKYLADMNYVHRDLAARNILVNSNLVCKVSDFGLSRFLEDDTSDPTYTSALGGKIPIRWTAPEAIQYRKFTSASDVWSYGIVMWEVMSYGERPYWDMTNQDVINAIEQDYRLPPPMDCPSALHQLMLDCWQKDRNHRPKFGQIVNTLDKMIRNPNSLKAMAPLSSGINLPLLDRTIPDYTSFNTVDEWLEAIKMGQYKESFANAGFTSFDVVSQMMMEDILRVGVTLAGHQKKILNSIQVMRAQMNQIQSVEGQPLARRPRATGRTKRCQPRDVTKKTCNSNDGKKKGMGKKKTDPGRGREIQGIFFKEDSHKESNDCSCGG
compound,measurement,setting,value
CC[C@H](C)[C@H](NC(=O)[C@@H]1CCCN1C(=O)CNC(=O)[C@H](CC(N)=O)NC(=O)[C@@H]1CCCN1C(=O)[C@H](CO)NC(=O)[C@H](Cc1ccccc1)NC(=O)[C@H](CC(C)C)NC(=O)[C@H](Cc1ccc(O)cc1)NC(=O)[C@H](CC(N)=O)NC(=O)[C@@H](N)[C@@H](C)O)C(=O)N[C@@H](C)C(=O)O [compound 24],EphB Receptor Specificity (% Binding) B1,[1],5%
EWLSPNLAPSVR [compound 1],EphB Receptor Specificity (% Binding) B2,[2],2%
same,IC50,[3]; panning receptor EphB1,~10000 nM
CC(C)C[C@H](NC(=O)[C@H](C)NC(=O)[C@@H](N)CC(=O)O)C(=O)N[C@@H](CC(N)=O)C(=O)N[C@@H](CC(=O)O)C(=O)N[C@@H](Cc1c[nH]c2ccccc12)C(=O)N[C@@H](CC(C)C)C(=O)N[C@@H](CC(C)C)C(=O)N[C@@H](Cc1ccccc1)C(=O)N[C@@H](CCCNC(=N)N)C(=O)N1CCC[C@H]1C(=O)N[C@@H](Cc1c[nH]c2ccccc12)C(=O)O [compound 20],EphB Receptor Specificity (% Binding) B1,[1],0%
"3.4 Kd (dimer): two TNYL-RAW peptides (with biotin) conjugated to a 3.4 kDa bifunctional PEG (SMB-PEG-SMB) (TNYLFSPNGPIARAW; also: biotin, position not given here, dimer: two peptides joined by 3.4 kDa bifunctional PEG (SMB-PEG-SMB))",Kd,[4],0.9 ± 0.3 nM
DHNHNLYNPWRL [compound 21],EphB Receptor Specificity (% Binding) B1,[1],9%
same,EphB Receptor Specificity (% Binding) B2,[2],8%
EWYMKFPPEHYF [compound 19],EphB Receptor Specificity (% Binding) B1,[1],22%
CC[C@H](C)[C@H](NC(=O)[C@H](C)NC(=O)[C@H](Cc1ccccc1)NC(=O)[C@@H]1CCCN1C(=O)[C@H](CCC(=O)O)NC(=O)[C@@H](NC(=O)[C@@H](NC(=O)[C@H](Cc1c[nH]c2ccccc12)NC(=O)[C@H](Cc1c[nH]cn1)NC(=O)[C@@H](N)Cc1c[nH]c2ccccc12)[C@@H](C)O)[C@@H](C)CC)C(=O)N[C@H](C(=O)N[C@@H](CO)C(=O)O)[C@@H](C)O [compound 8],EphB Receptor Specificity (% Binding) B1,[1],99%
"10 Kd (monomer): one TNYL-RAW peptide (with biotin) conjugated to a 10 kDa PEG molecule (TNYLFSPNGPIARAW; also: conjugated to a 10 kDa PEG, site not given here, biotin, position not given here)",Kd,[4],1.4 ± 0.7 nM
same,IC50,[5],21 ± 5 nM
"10 Kd (dimer): two TNYL-RAW peptides (with biotin) conjugated to a 10 kDa bifunctional PEG (SMB-PEG-SMB) (TNYLFSPNGPIARAW; also: biotin, position not given here, dimer: two peptides joined by 10 kDa bifunctional PEG (SMB-PEG-SMB))",Kd,[4],0.9 ± 0.2 nM
same,IC50,[5],9 ± 2 nM
35 (SGHQLLNKMPN; EphB4-binding peptide) [compound 35],EphB Receptor Specificity (% Binding) B4,[6],100%
FSPQGPAARNFA [compound 25],EphB Receptor Specificity (% Binding) B1,[1],13%
CC[C@H](C)[C@H](NC(=O)[C@@H]1CCCN1C(=O)[C@H](Cc1c[nH]c2ccccc12)NC(=O)[C@H](Cc1c[nH]cn1)NC(=O)[C@@H](N)CO)C(=O)N[C@@H](CO)C(=O)N1CCC[C@H]1C(=O)N[C@@H](Cc1ccc(O)cc1)C(=O)N[C@@H](CO)C(=O)N[C@@H](CC(C)C)C(=O)N[C@@H](CC(C)C)C(=O)N[C@@H](CO)C(=O)O [compound 14],EphB Receptor Specificity (% Binding) B1,[1],39%
TNYLFSPNGPIARAW [TNYL-RAW],stability in cell conditioned medium,cell conditioned medium in the absence of the cells (FIG. 3C),rapidly lost
same,stability in cell culture medium with PC3 cells,medium replaced with fresh medium just before adding the peptide (FIG. 3B),remained intact for several hours
same,stability in cell conditioned medium with protease inhibitors,"mixture of protease inhibitors (aprotinin, PMSF, leupeptin, pepstatin) added to conditioned medium (FIG. 3D)",reduce peptide instability
CC[C@H](C)[C@H](NC(=O)[C@H](CCCNC(=N)N)NC(=O)[C@H](Cc1c[nH]c2ccccc12)NC(=O)[C@H](Cc1c[nH]cn1)NC(=O)[C@@H](N)CC(=O)O)C(=O)N[C@@H](CC(C)C)C(=O)N1CCC[C@H]1C(=O)N[C@@H](Cc1ccccc1)C(=O)N[C@@H](CO)C(=O)N[C@@H](CC(C)C)C(=O)N[C@@H](CO)C(=O)N[C@@H](CO)C(=O)O [compound 10],EphB Receptor Specificity (% Binding) B1,[1],53%
AHTFPYPHPKPH [compound 3],EphB Receptor Specificity (% Binding) B1,[1],100%
same,EphB Receptor Specificity (% Binding) B2,[2],4%
same,IC50,[3],~150000 nM
CC[C@H](C)[C@H](NC(=O)[C@@H](NC(=O)[C@@H]1CCCN1C(=O)[C@@H](N)CC(N)=O)C(C)C)C(=O)NCC(=O)N1CCC[C@H]1C(=O)N[C@H](C(=O)N[C@@H](CCC(N)=O)C(=O)N[C@@H](CCCNC(=N)N)C(=O)N[C@@H](C)C(=O)N[C@@H](Cc1c[nH]c2ccccc12)C(=O)N[C@H](C(=O)O)[C@@H](C)O)[C@@H](C)CC [compound 27],EphB Receptor Specificity (% Binding) B1,[1],1%
TYFDFQAWSIRA [compound 22],EphB Receptor Specificity (% Binding) B1,[1],10%

# Source: US20100150834A1, “HIGH AFFINITY EPHB RECEPTOR BINDING COMPOUNDS AND METHODS OF USE THEREOF” (priority 2006, published 2010)
